A short description of data set [1]: pKa of the bridging nitrogen. In kind it is physicochemical. The conditions noted are these: positively-charged bridging nitrogen of the bicyclic ring.
Another data set deals with human α3β4 receptor. The conditions noted are these: ref Tuan et al., 2015; cited from earlier work.
In another data set the test system is α3β4. The conditions noted are these: cited from earlier work.
Data set [2] deals with T1, α3β4 receptor (Homo sapiens, UniProt P30926+P32297, DEL362-406/DEL379-429/F412N/I408D/INS413[…]/INS432[…]/L414K/P409L/R410E/R415Y/S416L/S433L/V431D). In kind it is binding. The conditions noted are these: Fab in large excess (1 μM); Fig. S1C-F.
Data set [3] deals with T1, α3β4 receptor. In words: Functional response to nicotine in presence of Fab. In kind it is cell-based. The conditions noted are these: Fig. S1B.
The mark [4] stands for this setting: ref Eaton et al., 2003, Xiao et al., 1998.

Where two headings read alike, the source gives them in different places.

`CN1C2CCCC1CC(Nc1ccccc1Br)C2` (centres unmarked) [AT-1001] had a pKa in data set [1] of 9.35. In the data set on human α3β4 receptor, the “affinity to the human α3β4 receptor” value was “sub-nanomolar” and the “selectivity for α3β4 over α4β2” value is on record as ~ 200 fold. With `Clc1ccc(C2CC3CCC2N3)cn1` (centres unmarked) [epibatidine], the “affinity lower for α3β4 than for α4β2” value with α3β4 (setting [4]) is reported as 10-100 fold.

For the molecule `CC(=O)OCC[N+](C)(C)C` [acetylcholine], the “affinity lower for α3β4 than for α4β2” value in the data set with α3β4 (setting [4]) is recorded as 10-100 fold. As to `CN1CCC[C@H]1c1cccnc1` [nicotine], the “affinity lower for α3β4 than for α4β2” value in the data set on α3β4 is 10-100 fold.

B1: Fab: Fab fragment of the 4G9 mouse monoclonal antibody (IgG2b, κ) raised against α3β4 (antibody, V domains shown)
VH: QVQLQQSGPELVRPGVSVKISCKGSGYTFTDYALYWVRQSHAKSLEWIGVINPYSGNTNYNQKFKGKATMTVDKSSSTAYMELARLTSDDSAIYYCASGYDGYPYTMDYWGPGASVTVSS
VL: QIVLTQSPAIMSASPGEKVTMTCSASSSMTYMHWYQQKSGTSPKRWIYDTSQLASGVPARFRGSGSGTSFSLTISSMEAEDAATYYCQQWSSNPLTFGGGTKLELK
Consider B1, for which the “effect on ligand binding” value with α3β4 receptor [2] was “small positive effect”. In addition, the “effect on the functional response to nicotine” value in the data set with α3β4 receptor [3] is given as “little to no effect”.

The record behind these values is publication PMC6842111 (Neuron, 2019).
